In US12285454B2, “Anti-aging chinese herb extract, extraction method and use thereof” (HEALTH LIFE BIOSCIENCES INC, priority 2019, dated 2025):

Biological target: T1, telomerase (Homo sapiens, UniProt O14746)
T1 construct: endogenous in cells; host or cells: CCL137 normal human fibroblast cell line (ATCC)
Assay: Telomerase activity by PCR-ELISA (TRAP) in normal human fibroblasts
Type: cell-based
Conditions: CCL137 normal human fibroblasts, X ± S, N = 9
From the text: • Telomerase Activity Assay Kit (Roche, Switzerland); • CCL137 human fibroblast cell lines (American Type Culture Collection (ATCC)); • Ginseng-Astragalus membranaceus extract: the extract prepared in Example 1 of the present invention; • Astragalus membranaceus extract: the Astragalus membranaceus extract prepared in Example 3 of the present invention; • Ginseng extract: the ginseng extract prepared in Example 2 of the present invention. Method The effects of different extracts on the telomerase activity were detected by PCR-ELISA. Principle: This method is based on establishment of Telomeric Repeat Amplification Protocol (TRAP), which is used for PCR Amplification of telomerase mediated derivatives and combined with the subsequent ELISA method. […]
For the sample of each group, to the EP tube, 20 μl of the denaturing reagent were added and marked, and 5 μl of the obtained product after the PCR amplification was added. […] The absorbance value is then detected at 450 nm using the microplate reader and A690 nm was taken as a reference, and the value of the negative control will be subtracted from the absorption value for the sample of each group. […]
The test results were analyzed and processed by a SPSS18.0 statistical software. […]
The test methods and procedures for detection of the telomerase activity were the same as the Test Example 1, and the measured results were shown in Table 5.

T1 sequence (O14746 whole entry): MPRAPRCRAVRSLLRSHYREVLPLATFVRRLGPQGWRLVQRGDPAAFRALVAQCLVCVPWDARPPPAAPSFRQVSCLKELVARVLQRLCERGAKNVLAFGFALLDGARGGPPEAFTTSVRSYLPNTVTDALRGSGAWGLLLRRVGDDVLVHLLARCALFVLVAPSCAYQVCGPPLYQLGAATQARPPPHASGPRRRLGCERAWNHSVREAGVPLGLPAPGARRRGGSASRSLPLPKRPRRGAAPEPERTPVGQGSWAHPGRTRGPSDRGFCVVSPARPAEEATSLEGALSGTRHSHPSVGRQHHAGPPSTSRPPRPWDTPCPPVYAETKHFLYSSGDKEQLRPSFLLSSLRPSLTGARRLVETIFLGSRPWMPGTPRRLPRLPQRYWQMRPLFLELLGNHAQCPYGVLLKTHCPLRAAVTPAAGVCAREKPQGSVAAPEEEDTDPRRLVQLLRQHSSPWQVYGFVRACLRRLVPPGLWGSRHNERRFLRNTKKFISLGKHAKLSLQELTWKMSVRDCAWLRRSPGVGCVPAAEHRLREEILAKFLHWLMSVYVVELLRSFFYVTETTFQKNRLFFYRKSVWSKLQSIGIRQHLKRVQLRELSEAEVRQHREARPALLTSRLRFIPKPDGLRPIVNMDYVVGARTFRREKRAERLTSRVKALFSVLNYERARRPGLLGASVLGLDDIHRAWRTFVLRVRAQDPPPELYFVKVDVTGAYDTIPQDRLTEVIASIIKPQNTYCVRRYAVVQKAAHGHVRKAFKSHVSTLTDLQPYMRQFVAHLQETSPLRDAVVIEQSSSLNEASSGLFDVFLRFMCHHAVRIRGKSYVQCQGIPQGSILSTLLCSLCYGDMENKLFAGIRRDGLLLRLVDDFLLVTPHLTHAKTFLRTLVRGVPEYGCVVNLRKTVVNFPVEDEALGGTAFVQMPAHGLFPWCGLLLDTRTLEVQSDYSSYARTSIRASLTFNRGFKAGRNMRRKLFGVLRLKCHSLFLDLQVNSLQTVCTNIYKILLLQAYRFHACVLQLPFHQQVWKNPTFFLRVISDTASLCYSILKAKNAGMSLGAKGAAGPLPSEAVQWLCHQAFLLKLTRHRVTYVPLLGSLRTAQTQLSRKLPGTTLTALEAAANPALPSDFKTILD

Substance: Astragaloside
- Telomerase activity (ΔA) (Table 5, high concentration group, extract concentration 100 ug/mL): 0.436
- Telomerase activity (ΔA) (Table 5, medium concentration group, extract concentration 50 ug/mL): 0.453
